# According to patent US11110158B2, “Prostate-associated antigens and vaccine-based immunotherapy regimens” (Pfizer Inc., priority 2012, dated 2021):
# Where “and” joins values, the source holds several entries; their conditions need not be identical. Equal values may be shown once.
# Experiments:
# human PSMA = assay: IFNγ ELISPOT of PBMCs, PSMA vaccine with or without anti-CTLA-4 in Indian rhesus macaques, human PSMA recall antigens; assay type: in vivo, rhesus macaque
# Excerpt: Three groups of male Indian rhesus macaques, five to six (#1 to 5 or 6) per each test group, were immunized with a nucleic acid (SEQ ID NO: 10) that encodes a human PSMA modified antigen (SEQ ID NO: 9) delivered by adenovirus (1e11 V.P. injected intramuscularly) followed by 2 DNA immunizations (8 actuations/immunization, 4 actuations per each right and left side of the lower abdomen) by PMED with 6 and 9 week intervals respectively. Animals in Groups 2 and 3 additionally received bilateral intradermal injections of 3 mg of CpG (PF-03512676) subsequently after the PMED immunization in proximity to each inguinal draining lymph node. Group 2 also received intravenous injections of anti-CTLA-4 monoclonal antibody (CP-675, 206) at 10 mg/kg and group 3 received intradermal injections of anti-CTLA-4 monoclonal antibody (CP-675, 206) at 5 mg/kg in proximity to each left and right inguinal vaccine draining lymph node at the time of the second PMED immunization.
# Peripheral blood samples were collected from each animal sixteen days after the last PMED immunization. Peripheral blood mononuclear cells (PBMCs) were isolated from the samples and were subjected to an IFNγ ELISPOT assay to measure the PSMA specific T cell responses. Briefly, 4e5 PBMCs from individual animals were plated per well with pools of PSMA specific peptides each at 2 ug/ml hPSMA ECD protein at 10 ug/ml, rhesus PSMA ECD protein at 10 ug/ml or nonspecific control peptides (human HER2 peptide pool) each at 2 ug/ml in IFNγ ELISPOT plates. The plates were incubated for 16 hrs at 37° C. and 5% CO2 and washed and developed after incubation as per manufacturer's instruction. The number of IFNγ spot forming cells (SFC) were counted by CTL reader. Each condition was performed in duplicates.
# A capture antibody specific to IFNγ([…]BD Bioscience, #51-2525kc) is coated onto a polyvinylidene fluoride (PVDF) membrane in a microplate overnight at 4° C. The plate is blocked with serum/protein to prevent nonspecific binding to the antibody. After blocking, effector cells (such as splenocytes isolated from immunized mice or PBMCs isolated from rhesus macaques) and targets (such as PSMA peptides from peptide library, target cells pulsed with antigen specific peptides or tumor cells expressing the relevant antigens) are added to the wells and incubated overnight at 37° C. in a 5% CO2 incubator. Cytokine secreted by effector cells are captured by the coating antibody on the surface of the PVDF membrane. After removing the cells and culture media, 100 μl of a biotinylated polyclonal anti-humanIFNγ antibody was added to each of the wells for detection. The spots are visualized by adding streptavidin-horseradish peroxidase and the precipitate substrate, 3-amino-9-ethylcarbazole (AEC), to yield a red color spot as per manufacturer's (Mabtech) protocol. Each spot represents a single cytokine producing T cell.
# rhesus PSMA = assay: IFNγ ELISPOT of PBMCs, rhesus PSMA adenovirus with subcutaneous anti-CTLA-4 in Indian rhesus macaques; assay type: in vivo; conditions: versus vaccine alone
# Description: Five groups of male Indian rhesus macaques, seven (#1 to 7) per each test group, were immunized with an adenovirus encoding a rhesus PSMA modified polypeptide delivered by bilateral intramuscular injections (2×5e10 V.P.). Immediately following the adenovirus injections, group 1 received vehicle, and groups 2 to 4 received bilateral subcutaneous injections of anti-CTLA-4 antibody (CP-675, 206) at doses 2×25 mg, 2×16.7 mg and 2×8.4 mg respectively in proximity to the vaccine draining lymph node.
# Nine days after the immunization, peripheral blood mononuclear cells (PBMCs) were isolated from each animal and were subjected to an IFNγ ELISPOT assay to measure the rhesus PSMA specific T cell responses. Briefly, 4e5 PBMCs from individual animals were plated per well with pools of rhesus PSMA specific peptides (P1, P2, P3 or R1+R2 defined in table 24A) or nonspecific control peptides (human HER2 peptide pool) each at 2 ug/ml in IFNγ ELISPOT plates. The plates were incubated for 16 hrs at 37° C. and 5% CO2 and washed and developed after incubation as per manufacturer's instruction. The number of IFNγ spot forming cells (SFC) were counted by CTL reader. Each condition was performed in duplicates. The average of the duplicates from the background adjusted SFC of the rhesus PSMA specific peptide pools was normalized to the response in 1e6 PBMCs.
# A capture antibody specific to IFNγ […]BD Bioscience, #51-2525kc) is coated onto a polyvinylidene fluoride (PVDF) membrane in a microplate overnight at 4° C. The plate is blocked with serum/protein to prevent nonspecific binding to the antibody. After blocking, effector cells (such as splenocytes isolated from immunized mice or PBMCs isolated from rhesus macaques) and targets (such as PSMA peptides from peptide library, target cells pulsed with antigen specific peptides or tumor cells expressing the relevant antigens) are added to the wells and incubated overnight at 37° C. in a 5% CO2 incubator. Cytokine secreted by effector cells are captured by the coating antibody on the surface of the PVDF membrane. […]
# [1] = Group 2, vaccine + CpG 3 mg intradermal + aCTLA4 10 mg/kg intravenous (IV), rhesus PBMCs, normalized to 1e6 PBMCs, one cell per animal, 10 mg/kg
# [2] = Group 3, vaccine + CpG 3 mg intradermal + aCTLA4 5 mg/kg intradermal (ID) near each inguinal node, rhesus PBMCs, normalized to 1e6 PBMCs, ^ too numerous to count, 5 mg/kg
substance,measurement,setting,value
"Tremelimumab: fully human IgG2 anti-CTLA-4 monoclonal antibody, CAS 745013-59-6, SEQ ID NOs:42 and 43","PSMA specific IFNγ SFC, recall antigen H1",human PSMA; [1],71.3 SFC and 2.5 SFC and 1063.8 SFC and 147.5 SFC and 402.5 SFC
same,"PSMA specific IFNγ SFC, recall antigen H2",human PSMA; [1],292.5 SFC and 108.8 SFC and 82.5 SFC and 983.8 SFC and 573.8 SFC
same,"PSMA specific IFNγ SFC, recall antigen P1",human PSMA; [1],23.8 SFC and 0.0 SFC and 58.8 SFC and 25.0 SFC and 15.0 SFC
same,"PSMA specific IFNγ SFC, recall antigen P2",human PSMA; [1],57.5 SFC and 61.3 SFC and 41.3 SFC and 318.8 SFC and 312.5 SFC
same,"PSMA specific IFNγ SFC, recall antigen P3",human PSMA; [1],1.3 SFC and 0.0 SFC and 7.5 SFC and 27.5 SFC and 5.0 SFC
same,"PSMA specific IFNγ SFC, recall antigen hPSMA protein",human PSMA; [1],278.8 SFC and 78.8 SFC and 1197.5 SFC and 1046.3 SFC and 707.5 SFC
same,"PSMA specific IFNγ SFC, recall antigen H2",human PSMA; [2],≥ 1236.3^ SFC and ≥ 1247.5^ SFC and ≥ 1248.8^ SFC and 1173.8 SFC
same,"PSMA specific IFNγ SFC, recall antigen hPSMA protein",human PSMA; [2],≥ 1236.8^ SFC and ≥ 1247.5^ SFC and ≥ 1248.8^ SFC and ≥ 1242.5^ SFC
same,IFNγ T cell responses to PSMA specific peptides and proteins,"human PSMA; group 2: vaccine + CpG (PF-03512676) + systemic (intravenous) anti-CTLA-4 10 mg/kg, versus vaccine alone",modestly enhanced
same,IFNγ T cell responses to PSMA specific peptides and proteins,human PSMA; group 3: vaccine + CpG + anti-CTLA-4 delivered locally by intradermal injections near the vaccine draining lymph node,more potent and significant enhancement of the response
same,rhesus PSMA specific IFNγ T cell response,"rhesus PSMA; group 2: 50 mg (2×25 mg) subcutaneous near vaccine draining lymph node, P=0.001",significantly enhanced
same,rhesus PSMA specific IFNγ T cell response,"rhesus PSMA; group 3: 33.4 mg subcutaneous, P=0.004",significantly enhanced
same,rhesus PSMA specific IFNγ T cell response,"rhesus PSMA; group 4: 16.7 mg subcutaneous, P=0.05",significantly enhanced
